Values quoted from earlier work as cited in patent publication US20210319872A1, “DRUG AND DEVICE COMBINATION PRODUCTS WITH IMPROVED SAFETY AND EFFICACY PROFILES” (priority 2016, published 2021).

Conditions: in vivo

SMILES: O=C1CCc2ccc(OCCCCN3CCN(c4cccc(Cl)c4Cl)CC3)cc2N1 [Aripiprazole (Abilify)]
- Akathisia: Neurologic: Akathisia (2% to 25%), Dizziness (4% to 10%),
- Angioedema: Other: Angioedema (0.1% to less than 1%), Increased body
- Anxiety: Psychiatric: Anxiety (4% to 17%), Restlessness (2% to 12%)
- Cardiorespiratory arrest: Cardiovascular: Cardiorespiratory arrest (0.1% to 1%),
- Cardiorespiratory failure: Cardiorespiratory failure (0.1% to 1%), Myocardial infarction
- Constipation: Gastrointestinal: Constipation (5% to 11%), Nausea (8% to 15%),
- Diabetic ketoacidosis: Endocrine metabolic: Diabetic ketoacidosis (Less than 0.1%)
- Dizziness: Neurologic: Akathisia (2% to 25%), Dizziness (4% to 10%),
- Extrapyramidal sign: Extrapyramidal sign (2% to 27.3%), Headache (10% to 27%),
- Fatigue: Other: Fatigue (2% to 17%)
- Headache: Extrapyramidal sign (2% to 27.3%), Headache (10% to 27%),
- Leukopenia: Hematologic: Agranulocytosis, Leukopenia (Less than 1%),
- Myocardial infarction: (0.1% to 1%), Prolonged QT interval (0.1% to 1%)
- Nausea: Gastrointestinal: Constipation (5% to 11%), Nausea (8% to 15%),
- Neutropenia: Neutropenia (Less than 1%)
- Pancreatitis: Gastrointestinal: Pancreatitis (Less than 0.1%)
- Prolonged QT interval: (0.1% to 1%), Prolonged QT interval (0.1% to 1%)
- Restlessness: Psychiatric: Anxiety (4% to 17%), Restlessness (2% to 12%)
- Rhabdomyolysis: Musculoskeletal: Rhabdomyolysis (Less than 0.1%)
- Sedated: Insomnia (8% to 18%), Sedated (3% to 21%), Somnolence (6% to
- Seizure: Neurologic: Cerebrovascular accident, Seizure (Up to 0.3%),
- Tremor: 26.3%), Tremor (2% to 11.8%)
- Vomiting: Vomiting (3% to 11%)

SMILES: CC(C)NCC(O)COc1ccc(CC(N)=O)cc1 (stereo not drawn) [Atenolol (Tenormin)]
- Bradyarrhythmia: Cardiovascular: Bradyarrhythmia (3% to 18%), Cold extremities
- Cold extremities: (12%), Hypotension (4% to 25%)
- Depression: Psychiatric: Depression (up to 12%)
- Dizziness: Neurologic: Dizziness (13%)
- Fatigue: Other: Fatigue (up to 26%)
- Hypotension: (12%), Hypotension (4% to 25%)
- Pulmonary embolism: Respiratory: Pulmonary embolism (1.2%)

SMILES: CNCC[C@@H](Oc1ccccc1C)c1ccccc1 [Atomoxetine (Strattera)]
- Constipation: 18%), Constipation (adult, 8%; pediatric, 1% to 2%), Decrease in
- Decrease in appetite: appetite (adult, 16%; pediatric, 16%), Nausea (adult, 26%;
- Delay when starting to pass urine: Renal: Delay when starting to pass urine (adult, 6%)
- Dysmenorrhea: Reproductive: Dysmenorrhea (adult, 3%), Erectile dysfunction
- Erectile dysfunction: (adult, 8%)
- Headache: Neurologic: Headache (pediatric, 19%), Insomnia (adult, 15%;
- Increased systolic arterial pressure: pressure (adult, 4.2% to 12.4%; pediatric, 4.9% to 12.5%),
- Menopausal flushing: Other: Menopausal flushing (adult, 3%)
- Priapism: Reproductive: Priapism (rare)
- Seizure: 0.1%; pediatric, 0.2%)
- Serious side effect, Cardiovascular: Cardiovascular: Myocardial infarction, Sudden cardiac death
- Serious side effect, Hepatic: Hepatic: Injury of liver (Severe), Liver failure
- Serious side effect, Neurologic: Neurologic: Cerebrovascular accident, Dyskinesia, Seizure (adult,
- Serious side effect, Psychiatric: Psychiatric: Mania, Psychotic disorder, Suicidal thoughts
- Somnolence: pediatric, at least 2%), Somnolence (adult, 8%; pediatric, 11%)
- Suicidal thoughts: (pediatric, 0.4%)
- Tachycardia: Tachycardia (adult, 1.5% to 22.4%; pediatric, 0.3% to 23.4%)
- Vomiting: pediatric, 7% to 13%), Vomiting (adult, 4%; pediatric, 11%),
- Weight decreased: Endocrine metabolic: Weight decreased (adults, 2%; pediatric, 3%
- Xerostomia: Xerostomia (adult, 20%)

SMILES: CCOC(=O)[C@H](CCc1ccccc1)N[C@H]1CCc2ccccc2N(CC(=O)O)C1=O [Benazepril (Lotensin)]
- Angioedema, head and neck: Other: Angioedema, head and neck (0.5%)
- Cough: Respiratory: Cough (1.2%)
- Dizziness: Neurologic: Dizziness (3.6%), Headache (6.2%)
- Fatigue: Other: Fatigue (2.4%)
- Headache: Neurologic: Dizziness (3.6%), Headache (6.2%)
- Stevens-Johnson syndrome: Dermatologic: Stevens-Johnson syndrome (less than 1%)

SMILES: CC(C)NCC(O)COc1ccc(CCOCC2CC2)cc1 (stereo not drawn) [Betaxolol (Kerlone)]
- Arthralgia: Musculoskeletal: Arthralgia (3.1% to 5.2%), Chest pain (2.4% to
- Bradyarrhythmia: Cardiovascular: Bradyarrhythmia (5.8% to 8.1%)
- Burning sensation in eye: Ophthalmic: Burning sensation in eye (30%, ophthalmic)
- Fatigue: Other: Fatigue (2.9% to 9.7%)
- Indigestion: Gastrointestinal: Indigestion (3.9% to 4.7%), Nausea (1.6% to
- Serious side effects, listed without incidence or only as rare: Cardiovascular: Atrioventricular block, Myocardial infarction

SMILES: CC(C)NCC(O)COc1ccc(COCCOC(C)C)cc1 (stereo not drawn) [Bisoprolol (Zebeta)]
- Diarrhea: Gastrointestinal: Diarrhea (2.6% to 3.5%)
- Fatigue: Other: Fatigue (6.6% to 8.2%)
- Headache: Neurologic: Headache (8.8% to 10.9%)
- Rhinitis: Respiratory: Rhinitis (2.9% to 4%), Upper respiratory infection
- Upper respiratory infection: (4.8% to 5%.)

SMILES: CS(=O)(=O)O.Fc1ccc([C@@H]2CCNC[C@H]2COc2ccc3c(c2)OCO3)cc1 [Brisdelle]
- Asthenia: Neurologic: Asthenia (2.9% to 22%), Dizziness (6% to 14%),
- Constipation: Gastrointestinal: Constipation (4.9% to 16%), Diarrhea (7.9% to
- Diaphoresis: Dermatologic: Diaphoresis (1% to 14%)
- Dizziness: Neurologic: Asthenia (2.9% to 22%), Dizziness (6% to 14%),
- Insomnia: vasomotor symptoms, 6.3%), Insomnia (11% to 24%), Somnolence
- Nausea: ≤ 19.2%), Loss of appetite (2% to 9%), Nausea (up to 36.3%),
- Reduced libido: 9%), Reduced libido (males, 6% to 15%; females, 0% to 9%)
- Serious side effect, Other: Other: Serotonin syndrome
- Serious side effect, Psychiatric: Psychiatric: Depression, Exacerbation, Suicidal thoughts, Suicide
- Somnolence: (12.7% to 24%), Tremor (up to 14.7%)
- Tremor: (12.7% to 24%), Tremor (up to 14.7%)
- Xerostomia: Xerostomia (10.8% to 20.6%)

SMILES: CCCCNc1cc(C(=O)O)cc(S(N)(=O)=O)c1Oc1ccccc1 [Bumetanide (Bumex)]
- Azotemia (incidence): Renal: Azotemia (10.6%)
- Cramp (incidence): Musculoskeletal: Cramp (1.1%)
- Dizziness (incidence): Neurologic: Dizziness (1.1%), Headache (0.6%)
- Encephalopathy (incidence): Neurologic: Encephalopathy (0.6%)
- Headache (incidence): Neurologic: Dizziness (1.1%), Headache (0.6%)
- Hyperuricemia (incidence): Endocrine metabolic: Hyperuricemia (18.4%), Hypochloremia
- Hypochloremia (incidence): (14.9%), Hypokalemia (14.7%)
- Hypokalemia (incidence): (14.9%), Hypokalemia (14.7%)
- Hypotension (incidence): Cardiovascular: Hypotension (0.8%)
- Nausea (incidence): Gastrointestinal: Nausea (0.6%)
- Serious side effect listed (incidence not given): Dermatologic: Stevens-Johnson syndrome
- Thrombocytopenia (incidence): Hematologic: Thrombocytopenia (0.2%)

SMILES: CC(NC(C)(C)C)C(=O)c1cccc(Cl)c1 (stereo not drawn) [Bupropion (Wellbutrin)]
- Abdominal pain: Gastrointestinal: Abdominal pain (2% to 9%), Constipation (5% to
- Agitation: Psychiatric: Agitation (2% to 9%)
- Confusion: Neurologic: Confusion (major depressive disorder, 8%), Dizziness
- Dizziness: (6% to 11%), Headache (25% to 34%), Insomnia (11% to 20%)
- Headache: (6% to 11%), Headache (25% to 34%), Insomnia (11% to 20%)
- Hostile behavior: Hallucinations, Hostile behavior (major depressive disorder, 6%),
- Insomnia: (6% to 11%), Headache (25% to 34%), Insomnia (11% to 20%)
- Nasopharyngitis: Respiratory: Nasopharyngitis (seasonal affective disorder, 13%),
- Nausea: 10%), Nausea (13% to 18%), Xerostomia (17% to 26%)
- Pharyngitis: Pharyngitis (major depressive disorder, 3% to 11%), Upper
- Seizure: Neurologic: Seizure (major depressive disorder, 0.1% to 0.4%)
- Tachycardia: Cardiovascular: Tachycardia (major depressive disorder, 11%)
- Upper respiratory infection: respiratory infection (seasonal affective disorder, 9%)
- Weight gain: Endocrine metabolic: Weight gain (2% to 9%), Weight loss (major
- Weight loss: depressive disorder, 14% to 19%)
- Xerostomia: 10%), Nausea (13% to 18%), Xerostomia (17% to 26%)

SMILES: O=C1CC2(CCCC2)CC(=O)N1CCCCN1CCN(c2ncccn2)CC1 [Buspirone (Buspar)]
- Cerebrovascular accident: Neurologic: Cerebrovascular accident (less than 0.1%)
- Congestive heart failure: Cardiovascular: Congestive heart failure (less than 0.1%),
- Dizziness: Neurologic: Dizziness (12%), Headache (6%), Somnolence (10%)
- Feeling nervous: Psychiatric: Feeling nervous (5%)
- Headache: Neurologic: Dizziness (12%), Headache (6%), Somnolence (10%)
- Myocardial infarction: Myocardial infarction (less than 0.1%)
- Nausea: Gastrointestinal: Nausea (8%)
- Somnolence: Neurologic: Dizziness (12%), Headache (6%), Somnolence (10%)

SMILES: CCOc1nc2cccc(C(=O)O)c2n1Cc1ccc(-c2ccccc2-c2nnn[nH]2)cc1 [Candesartan (Atacand)]
- Backache: Musculoskeletal: Backache (3%.)
- Dizziness: Neurologic: Dizziness (less than 5%)
- Hypotension: Cardiovascular: Hypotension (18.8%)
- Pharyngitis: Respiratory: Pharyngitis (2%), Rhinitis (2%), Upper respiratory
- Rhinitis: Respiratory: Pharyngitis (2%), Rhinitis (2%), Upper respiratory
- Upper respiratory infection: infection (6%)

SMILES: C[C@H](CS)C(=O)N1CCC[C@H]1C(=O)O [Captopril (Capoten)]
- Agranulocytosis: Hematologic: Agranulocytosis (0.1% to 0.2%), Neutropenia (0.1%
- Angioedema: Other: Angioedema (0.1%)
- Cough: Respiratory: Cough (0.5% to 2%)
- Hyperkalemia: Endocrine metabolic: Hyperkalemia (11%)
- Neutropenia: Hematologic: Agranulocytosis (0.1% to 0.2%), Neutropenia (0.1%
